Assay results taken from ChEMBL document CHEMBL3994583, “Discovery of 4-[(5-arylidene-4-oxothiazolidin-3-yl)methyl]benzoic acid derivatives active as novel potent allosteric inhibitors of protein tyrosine phosphatase 1B: In silico studies and in vitro evaluation as insulinomimetic and anti-inflammatory agents” (Eur J Med Chem, 2017).
Calls of active or inactive are those of the source. The rule behind the calls is not given here.

Key:
NCTC-2544 [1] = assay: Anti-inflammatory activity in IFN-gamma and histamine-stimulated human NCTC-2544 cells assessed as reduction in iNOS protein expression by Western blot method; format: functional, cell-based
[2] = target: T1, Tyrosine-protein phosphatase non-receptor type 1 (Homo sapiens) (UniProt P18031); assay: Irreversible inhibition of full length recombinant human PTP1B assessed as recovery of enzyme activity up to 50 uM using pNPP as substrate preincubated for 1 hr followed by substrate addition by spectrophotometric method; set-up: scale not given: the % may be the effect or the level left
T1 sequence (whole entry): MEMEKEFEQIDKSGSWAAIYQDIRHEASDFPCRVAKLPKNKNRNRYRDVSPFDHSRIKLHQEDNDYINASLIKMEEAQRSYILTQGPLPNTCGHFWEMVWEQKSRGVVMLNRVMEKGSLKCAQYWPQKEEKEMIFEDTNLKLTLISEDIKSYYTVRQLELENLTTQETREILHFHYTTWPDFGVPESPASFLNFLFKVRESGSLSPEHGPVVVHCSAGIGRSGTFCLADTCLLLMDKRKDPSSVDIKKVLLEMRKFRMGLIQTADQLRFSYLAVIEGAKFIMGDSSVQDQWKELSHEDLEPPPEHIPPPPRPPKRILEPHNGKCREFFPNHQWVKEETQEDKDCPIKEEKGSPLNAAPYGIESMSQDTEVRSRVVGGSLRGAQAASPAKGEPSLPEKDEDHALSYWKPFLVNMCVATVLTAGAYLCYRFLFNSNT

[3] = target: T2, Tyrosine-protein phosphatase non-receptor type 1 (Homo sapiens, UniProt P18031); assay: Inhibition of full length recombinant human PTP1B using pNPP as substrate by spectrophotometric method
T2 sequence (P18031 whole entry): T1 sequence (whole entry)

NCTC-2544 [4] = assay: Anti-inflammatory activity in IFN-gamma and histamine-stimulated human NCTC-2544 cells assessed as reduction in COX-2 protein expression by Western blot method; format: functional, cell-based
C2C12 [5] = assay: Insulinomimetic effect in mouse C2C12 cells assessed as induction of [3H]2-deoxyglucose uptake at 50 uM preincubated for 30 mins followed by [3H]2-deoxyglucose addition measured after 15 mins by liquid scintillation counting method; format: functional, cell-based
NCTC-2544 [6] = assay: Anti-inflammatory activity in IFN-gamma and histamine-stimulated human NCTC-2544 cells assessed as reduction in ICAM-1 protein expression by Western blot method; format: functional, cell-based
[7] = target: T3, Tyrosine-protein phosphatase non-receptor type 1 (Mus musculus) (UniProt P35821); assay: Inhibition of PTP1B in mouse C2C12 cells assessed as increase in phosphorylation of IRbeta at Tyr1162/1163 residues at 50 uM after 30 mins by Western blot method; format: cell-based
T3 sequence (whole entry): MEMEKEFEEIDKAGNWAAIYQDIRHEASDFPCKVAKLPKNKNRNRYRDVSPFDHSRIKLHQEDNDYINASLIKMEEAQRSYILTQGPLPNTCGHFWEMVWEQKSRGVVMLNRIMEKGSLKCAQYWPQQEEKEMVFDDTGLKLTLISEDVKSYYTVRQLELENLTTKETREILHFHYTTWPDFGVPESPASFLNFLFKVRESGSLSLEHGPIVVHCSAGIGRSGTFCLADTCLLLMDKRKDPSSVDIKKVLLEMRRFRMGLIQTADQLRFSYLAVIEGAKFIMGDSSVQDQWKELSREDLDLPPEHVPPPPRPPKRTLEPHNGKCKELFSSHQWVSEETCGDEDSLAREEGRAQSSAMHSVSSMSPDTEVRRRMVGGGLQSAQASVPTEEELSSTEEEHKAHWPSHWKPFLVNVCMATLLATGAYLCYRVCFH

[8] = target: T1, Tyrosine-protein phosphatase non-receptor type 1 (Homo sapiens); assay: Inhibition of PTP1B in human HepG2 cells assessed as increase in phosphorylation of Akt at Ser473 residue at 50 uM after 30 mins by Western blot method; format: cell-based
[9] = target: T1, Tyrosine-protein phosphatase non-receptor type 1 (Homo sapiens); assay: Inhibition of PTP1B in human HepG2 cells assessed as increase in phosphorylation of IRbeta at Tyr1162/1163 residues at 50 uM after 30 mins by Western blot method; format: cell-based
[10] = target: T2, Tyrosine-protein phosphatase non-receptor type 1; assay: Competitive inhibition of full length recombinant human PTP1B assessed as enzyme-inhibitor complex using pNPP as substrate by double reciprocal plot method
[11] = target: T3, Tyrosine-protein phosphatase non-receptor type 1 (Mus musculus); assay: Inhibition of PTP1B in mouse C2C12 cells assessed as increase in phosphorylation of Akt at Ser473 residue at 50 uM after 30 mins by Western blot method; format: cell-based
C2C12 [12] = assay: Cytotoxicity against mouse C2C12 cells assessed as reduction in cell viability after 24 hrs by MTT assay; format: cell-based; settings: c2c12, 24 h
HepG2 = assay: Cytotoxicity against human HepG2 cells assessed as reduction in cell viability at 25 uM after 24 hrs by MTT assay; format: cell-based; settings: hepg2, 24 h
NCTC-2544 [13] = assay: Cytotoxicity against human NCTC-2544 cells assessed as reduction in cell viability at 10 uM by MTT assay; format: cell-based; settings: nctc-2544, 10 µM
NCTC-2544 [14] = assay: Cytotoxicity against human IFN-gamma and histamine-stimulated NCTC-2544 cells assessed as reduction in cell viability at 10 uM by MTT assay; format: cell-based; settings: nctc-2544, 10 µM
[15] = target: T1, Tyrosine-protein phosphatase non-receptor type 1 (Homo sapiens); assay: Inhibition of PTP1B in human HepG2 cells assessed as increase in phosphorylation of IRbeta at Tyr1162/1163 residues at 50 uM by Western blot method; format: cell-based; settings: TDE = time-dependent effect
[16] = target: T1, Tyrosine-protein phosphatase non-receptor type 1 (Homo sapiens); assay: Inhibition of PTP1B in human HepG2 cells assessed as increase in phosphorylation of IRbeta at Tyr1162/1163 residues at 50 uM after 180 mins by Western blot method; format: cell-based
[17] = target: T1, Tyrosine-protein phosphatase non-receptor type 1 (Homo sapiens); assay: Competitive inhibition of full length recombinant human PTP1B assessed as enzyme-inhibitor complex up to 6 uM using pNPP as substrate by double reciprocal plot method
[18] = target: T1, Tyrosine-protein phosphatase non-receptor type 1 (Homo sapiens); assay: Reversible inhibition of full length recombinant human PTP1B assessed as recovery of enzyme activity up to 50 uM using pNPP as substrate preincubated for 1 hr followed by substrate addition by spectrophotometric method; set-up: scale not given: the % may be the effect or the level left
[19] = target: T2, Tyrosine-protein phosphatase non-receptor type 1; assay: Mixed non-competitive inhibition of full length recombinant human PTP1B assessed as enzyme-substrate-inhibitor complex using pNPP as substrate by double reciprocal plot method
[20] = target: T1, Tyrosine-protein phosphatase non-receptor type 1 (Homo sapiens); assay: Competitive inhibition of full length recombinant human PTP1B assessed as enzyme-inhibitor complex up to 8 uM using pNPP as substrate by double reciprocal plot method
[21] = target: T1, Tyrosine-protein phosphatase non-receptor type 1 (Homo sapiens); assay: Mixed-type inhibition of full length recombinant human PTP1B assessed as enzyme-substrate-inhibitor complex at 3 to 7.5 uM using pNPP as substrate by double reciprocal plot method
[22] = target: T1, Tyrosine-protein phosphatase non-receptor type 1 (Homo sapiens); assay: Mixed-type inhibition of full length recombinant human PTP1B assessed as enzyme-substrate-inhibitor complex at 3 to 9 uM using pNPP as substrate by double reciprocal plot method

Compound: O=C(O)c1ccc(CN2C(=O)/C(=C/c3cccc(Oc4ccccc4)c3)S/C2=N\c2ccc(F)cc2)cc1
- Activity (NCTC-2544 [1]): Active
- Activity [2]: 10 to 50%
- IC50 [3]: 10 µM
- Activity (NCTC-2544 [4]): Active
- Activity (C2C12 [5]): Active
- Activity (NCTC-2544 [6]): inactive
- inhibition [7]: Active
- inhibition [8]: Active
- inhibition [9]: Active
- Ki [10]: 4.4 µM
- inhibition [11]: Active
- Activity (C2C12 [12]): Non-Toxic
- Activity (HepG2): Non-Toxic
- Activity (NCTC-2544 [13]): Non-Toxic
- Activity (NCTC-2544 [14]): Non-Toxic

Compound: O=C(O)c1ccc(CN2C(=O)/C(=C/c3ccc(Oc4ccccc4)cc3)S/C2=N\c2ccc(F)cc2)cc1
- Activity [2]: 10 to 50%
- IC50 [3]: 5.1 µM
- inhibition [15]: Tde
- inhibition [7]: Active
- inhibition [8]: Active
- Ki [10]: 9.9 µM
- inhibition [11]: Active
- inhibition [16]: inactive
- Activity (C2C12 [12]): Non-Toxic
- Activity (HepG2): Non-Toxic
- Activity (NCTC-2544 [13]): Toxic

Compound: O=C(O)c1ccc(CN2C(=O)/C(=C/c3cccc(OCCc4ccccc4)c3)SC2=S)cc1
- Activity (NCTC-2544 [1]): Active
- IC50 [3]: 1.9 µM
- Activity (NCTC-2544 [4]): Active
- Activity (NCTC-2544 [6]): Active
- inhibition [17]: Active
- Activity [18]: 75 to 100%
- inhibition [9]: inactive
- Activity (C2C12 [12]): Non-Toxic
- Activity (HepG2): Non-Toxic
- Activity (NCTC-2544 [13]): Toxic
- Activity (NCTC-2544 [14]): Toxic

Compound: O=C(O)c1ccc(CN2C(=O)/C(=C/c3ccc(OCc4ccccc4)cc3)S/C2=N\c2ccc(F)cc2)cc1
- IC50 [3]: 1.9 µM
- inhibition [7]: Active
- Activity [18]: 75 to 100%
- inhibition [8]: Active
- inhibition [9]: Active
- Ki [10]: 1.4 µM
- inhibition [11]: inactive
- Activity (C2C12 [12]): Non-Toxic
- Activity (HepG2): Non-Toxic
- Activity (NCTC-2544 [13]): Toxic

Compound: O=C(O)c1ccc(CN2C(=O)/C(=C/c3cccc(OCCc4ccccc4)c3)S/C2=N\c2ccc(F)cc2)cc1
- Activity [2]: 10 to 50%
- IC50 [3]: 14.5 µM
- inhibition [7]: Active
- Ki [19]: 2.3 µM
- inhibition [11]: inactive
- Activity (C2C12 [12]): Non-Toxic
- Activity (HepG2): Non-Toxic
- Activity (NCTC-2544 [13]): Toxic

Compound: O=C(O)c1ccc(CN2C(=O)/C(=C/c3ccc(OCCc4ccccc4)cc3)S/C2=N\c2ccc(F)cc2)cc1
- Activity [2]: 10 to 50%
- IC50 [3]: 1.5 µM
- inhibition [7]: Active
- Ki [19]: 1 µM
- inhibition [11]: inactive
- Activity (C2C12 [12]): Non-Toxic
- Activity (HepG2): Non-Toxic
- Activity (NCTC-2544 [13]): Toxic

Compound: O=C(O)c1ccc(CN2C(=O)/C(=C/c3cccc(OCc4ccccc4)c3)SC2=S)cc1
- Activity (NCTC-2544 [1]): Active
- inhibition [20]: Active
- IC50 [3]: 5.7 µM
- Activity (NCTC-2544 [4]): Active
- Activity (NCTC-2544 [6]): Active
- Activity [18]: 75 to 100%
- inhibition [9]: inactive
- Activity (C2C12 [12]): Non-Toxic
- Activity (HepG2): Non-Toxic
- Activity (NCTC-2544 [13]): Non-Toxic
- Activity (NCTC-2544 [14]): Non-Toxic

Compound: O=C(O)c1ccc(CN2C(=O)/C(=C/c3ccc(OCc4ccccc4)cc3)SC2=S)cc1
- Activity (NCTC-2544 [1]): Active
- inhibition [21]: Active
- IC50 [3]: 5 µM
- Activity (NCTC-2544 [4]): Active
- Activity (NCTC-2544 [6]): Active
- Activity [18]: 75 to 100%
- inhibition [9]: inactive
- Activity (C2C12 [12]): Non-Toxic
- Activity (HepG2): Non-Toxic
- Activity (NCTC-2544 [13]): Non-Toxic
- Activity (NCTC-2544 [14]): Non-Toxic

Compound: O=C(O)c1ccc(CN2C(=O)/C(=C/c3cccc(Oc4ccccc4)c3)SC2=S)cc1
- Activity (NCTC-2544 [1]): Active
- IC50 [3]: 7.1 µM
- Activity (NCTC-2544 [4]): Active
- inhibition [22]: Active
- Activity (NCTC-2544 [6]): Active
- Activity [18]: 75 to 100%
- inhibition [9]: inactive
- Activity (C2C12 [12]): Non-Toxic
- Activity (HepG2): Non-Toxic
- Activity (NCTC-2544 [13]): Non-Toxic
- Activity (NCTC-2544 [14]): Non-Toxic

Compound: O=C(O)c1ccc(CN2C(=O)/C(=C/c3ccc(Oc4ccccc4)cc3)SC2=S)cc1
- Activity (NCTC-2544 [1]): Active
- IC50 [3]: 10.6 µM
- Activity (NCTC-2544 [4]): inactive
- inhibition [22]: Active
- Activity (NCTC-2544 [6]): Active
- Activity [18]: 75 to 100%
- inhibition [9]: inactive
- Activity (C2C12 [12]): Non-Toxic
- Activity (HepG2): Non-Toxic
- Activity (NCTC-2544 [13]): Non-Toxic
- Activity (NCTC-2544 [14]): Non-Toxic

Compound: O=C(O)c1ccc(CN2C(=O)/C(=C/c3cccc(OCc4ccccc4)c3)S/C2=N\c2ccc(F)cc2)cc1
- Activity [2]: 10 to 50%
- IC50 [3]: 4.2 µM
- inhibition [7]: Active
- inhibition [8]: Active
- inhibition [9]: Active
- Ki [19]: 1.5 µM
- inhibition [11]: inactive
- Activity (C2C12 [12]): Non-Toxic
- Activity (HepG2): Non-Toxic
- Activity (NCTC-2544 [13]): Toxic

Compound: O=C(O)c1ccc(CN2C(=O)/C(=C/c3ccc(OCCc4ccccc4)cc3)SC2=S)cc1
- Activity (NCTC-2544 [1]): Active
- inhibition [20]: Active
- IC50 [3]: 3.5 µM
- Activity (NCTC-2544 [4]): Active
- Activity [18]: 75 to 100%
- inhibition [9]: inactive
- Activity (C2C12 [12]): Non-Toxic
- Activity (HepG2): Non-Toxic
- Activity (NCTC-2544 [13]): Toxic
- Activity (NCTC-2544 [14]): Toxic
